Measurements published in patent publication US7928368B2, “Micropillar array electrospray chip” (Licentia Oy, priority 2007, dated 2011).
Where a name gives a salt, the structure may show the parent alone.

System: rat hepatocytes
Experiment: metabolism sample: incubation of sibutramine with rat hepatocytes, metabolites detected by μPESI/MS
Assay type: in vitro ADME
Conditions: R-enantiomer of sibutramine hydrochloride incubated with rat hepatocytes for 8 h, 2.5-μl injection, Q-TOF Micro
Description: For bioanalysis experiments verapamil, angiotensin I, angiotensin II, substance P, and horse heart myoglobin were used as test compounds and 2.5 μl of each sample was pipetted to the sample introduction spot. For the measurements of linearity and sensitivity verapamil was dissolved into acetonitrile:water (95:5) with 0.1% formic acid at concentrations of 10 pM to 10 μM. The metabolism sample was prepared by incubating R-enantiomer of sibutramine hydrochloride (purity>99%) with rat hepatocytes for 8 h. After sample preparation the sample was evaporated dryness and the residue was diluted to 50 μl of methanol. 10 μl of sample was dissolved into 500 μl acetonitrile:water (95:5) with 0.1% formic acid.
The peptides (angiotensin I, angiotensin II, and substance P) and the protein (horse heart myoglobin) were diluted into 80% aqueous methanol containing 1% acetic acid (two separate samples). The concentrations were 5 μM for the peptides and 300 nM for horse heart myoglobin. Full-scan mass spectra ranging from m/z 400 to 750 were measured from the peptide mixture and m/z 700 to 950 from the protein in the positive mode. Sibutramine metabolism sample was measured with Q-TOF Micro. A mass spectrum of solvent blank sample was subtracted from that of metabolism sample. […]

## CC(C)CC(N(C)C)C1(c2ccc(Cl)cc2)CCC1 (stereo not shown) [sibutramine, sibutramine hydrochloride]
  sibutramine metabolites found in metabolism sample: small amounts of sibutramine glucuronides were found
